Measurements from article PMC10452460, “In Silico, In Vitro, and In Vivo Investigations on Adapalene as Repurposed Third Generation Retinoid against Multiple Myeloma and Leukemia” (Cancers, 2023).

Molecular target: T1, c-MYC (Homo sapiens, UniProt P01106)
T1 construct: recombinant human c-MYC protein (ab169901, Abcam)
Assay: microscale thermophoresis with Blue-NHS labelled c-MYC ([…])
Format: binding

T1 sequence (P01106 16-454): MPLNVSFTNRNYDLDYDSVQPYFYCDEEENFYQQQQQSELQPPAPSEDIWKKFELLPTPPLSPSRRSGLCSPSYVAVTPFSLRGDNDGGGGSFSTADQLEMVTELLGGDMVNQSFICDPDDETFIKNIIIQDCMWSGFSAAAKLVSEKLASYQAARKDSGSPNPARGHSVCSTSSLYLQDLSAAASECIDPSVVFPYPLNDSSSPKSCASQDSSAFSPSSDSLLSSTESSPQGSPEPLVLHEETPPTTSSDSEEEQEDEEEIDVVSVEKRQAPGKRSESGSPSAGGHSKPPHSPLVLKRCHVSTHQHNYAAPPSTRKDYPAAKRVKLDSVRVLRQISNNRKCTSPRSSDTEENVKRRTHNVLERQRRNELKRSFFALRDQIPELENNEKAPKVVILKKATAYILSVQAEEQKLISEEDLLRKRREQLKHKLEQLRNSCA

- Kd: 3.05 µM
SMILES: COc1ccc(-c2ccc3cc(C(=O)O)ccc3c2)cc1C12CC3CC(CC(C3)C1)C2 [adapalene]
